Experimental data as given in patent US20100004459A1, “2-PHENYLNICOTINIC ACID DERIVATIVE” (NIPPON ZOKI PHARMACEUTICAL CO., LTD., priority 2006, published 2010).

How the values were obtained:
xanthine oxidase = molecular target: T1, xanthine oxidase (Bos taurus, UniProt P80457); assay: Test for xanthine oxidase inhibitory activity; format: biochemical; conditions: xanthine oxidase derived from milk (Sigma); substrate xanthine; uric acid production at OD 292 nm, 37° C.
T1 construct: derived from milk; manufactured by Sigma; purchased Sigma; host or cells: milk (natural source)
Experimental: Evaluation of inhibitory activity of the present invention to xanthine oxidase was conducted using xanthine as a substrate by measuring the amount of uric acid produced by xanthine oxidase which is an oxidizing enzyme therefor. Thus, xanthine oxidase (0.01 unit/L, 20 μL/well; derived from milk; manufactured by Sigma), diethylenetriamine pentaacetate (0.01 mol/L, 20 μL/well), phosphate buffer (20 μL/well), distilled water (100 μL/well) and a diluted solution (20 μL/well) of a test substance were mixed in a 96-well quartz microplate. After preincubating for 5 minutes in a microplate spectrophotometer warmed at 37° C., xanthine (1 mmol/L, 20 μL/well) was added. The changes with elapse of time in OD 292 nm based on the production of uric acid was measured using a microplate spectrophotometer warmed at 37° C. whereby the initial reaction velocity was measured. Xanthine oxidase inhibitory activity was calculated by the following formula and concentration of the test substance for 50% suppression (IC50 value) was calculated.
Inhibition Rate(%)={[(Initial Reaction Velocity of the Reaction Control)-(Initial Reaction Velocity upon Addition of Test Substance)]/[Initial Reaction Velocity of the Reaction Control]}×100

[1] = tested on: model rats of fructose-loaded hypertriglyceridemia; assay: Model rats of fructose-loaded hypertriglyceridemia: action for lowering of uric acid in serum; format: in vivo; conditions: Rattus norvegicus, po; male SD rats, 75% fructose solution for three days; 100 mg/kg orally once daily; serum 2 hours after final administration; read-out: Inhibition Rate (%) Action for lowering of uric acid
Experimental: (§1) The test was conducted according to a method of Kusama, et al. (Folia Pharmacologica Japonica, volume 92, pages 175 to 180, 1988). Thus, male rats of SD strain of 6 to 7 weeks age were made in free access to a 75% (w/v) D(−)-fructose solution for three days. During the period of fructose ingestion, a test substance (100 mg/kg) was suspended in 1% methyl cellulose and orally administered once daily. After 2 hours from the final administration, about 500 μL per rat of blood was collected using a hematocrit capillary from orbital venous plexus under anesthetization with ether and centrifuged (3000 rpm at 4° C. for 20 minutes) whereupon the serum was prepared.
(2) Action for Lowering of Uric Acid in Serum
Uric acid value in the serum was measured by a Uric acid C-Test Wako (manufactured by Wako Pure Chemical Industries, Ltd.) using the above serum and each uric acid lowering rate was determined by the following formula.
Uric Acid Lowering Rate(%)={[(Uric Acid Value of Control Animal)-(Uric Acid Value of Animals Administered with Test Substance)]/[Uric Acid Value of Control Animal]}×100

[2] = tested on: model rats of fructose-loaded hypertriglyceridemia; assay: Model rats of fructose-loaded hypertriglyceridemia: action for lowering of triglyceride in serum; format: in vivo; conditions: Rattus norvegicus, po; male SD rats, 75% fructose solution for three days; 100 mg/kg orally once daily; serum 2 hours after final administration; read-out: Inhibition Rate (%) Action for lowering of triglyceride
Experimental: as §1
(1) Action for Lowering of Triglyceride in Serum
The triglyceride (TG) in the serum was measured by a Triglyceride E-Test Wako (manufactured by Wako Pure Chemical Industries, Ltd.) and each TG lowering rate was determined by the following formula.
TG Lowering Rate(%)={[(TG Value of Control Animal)−(TG Value of Animal Administered with Test Substance)]/[(TG Value of Control Animal)-(TG Value of Untreated Animal)]}×100

T1 sequence (P80457 whole entry): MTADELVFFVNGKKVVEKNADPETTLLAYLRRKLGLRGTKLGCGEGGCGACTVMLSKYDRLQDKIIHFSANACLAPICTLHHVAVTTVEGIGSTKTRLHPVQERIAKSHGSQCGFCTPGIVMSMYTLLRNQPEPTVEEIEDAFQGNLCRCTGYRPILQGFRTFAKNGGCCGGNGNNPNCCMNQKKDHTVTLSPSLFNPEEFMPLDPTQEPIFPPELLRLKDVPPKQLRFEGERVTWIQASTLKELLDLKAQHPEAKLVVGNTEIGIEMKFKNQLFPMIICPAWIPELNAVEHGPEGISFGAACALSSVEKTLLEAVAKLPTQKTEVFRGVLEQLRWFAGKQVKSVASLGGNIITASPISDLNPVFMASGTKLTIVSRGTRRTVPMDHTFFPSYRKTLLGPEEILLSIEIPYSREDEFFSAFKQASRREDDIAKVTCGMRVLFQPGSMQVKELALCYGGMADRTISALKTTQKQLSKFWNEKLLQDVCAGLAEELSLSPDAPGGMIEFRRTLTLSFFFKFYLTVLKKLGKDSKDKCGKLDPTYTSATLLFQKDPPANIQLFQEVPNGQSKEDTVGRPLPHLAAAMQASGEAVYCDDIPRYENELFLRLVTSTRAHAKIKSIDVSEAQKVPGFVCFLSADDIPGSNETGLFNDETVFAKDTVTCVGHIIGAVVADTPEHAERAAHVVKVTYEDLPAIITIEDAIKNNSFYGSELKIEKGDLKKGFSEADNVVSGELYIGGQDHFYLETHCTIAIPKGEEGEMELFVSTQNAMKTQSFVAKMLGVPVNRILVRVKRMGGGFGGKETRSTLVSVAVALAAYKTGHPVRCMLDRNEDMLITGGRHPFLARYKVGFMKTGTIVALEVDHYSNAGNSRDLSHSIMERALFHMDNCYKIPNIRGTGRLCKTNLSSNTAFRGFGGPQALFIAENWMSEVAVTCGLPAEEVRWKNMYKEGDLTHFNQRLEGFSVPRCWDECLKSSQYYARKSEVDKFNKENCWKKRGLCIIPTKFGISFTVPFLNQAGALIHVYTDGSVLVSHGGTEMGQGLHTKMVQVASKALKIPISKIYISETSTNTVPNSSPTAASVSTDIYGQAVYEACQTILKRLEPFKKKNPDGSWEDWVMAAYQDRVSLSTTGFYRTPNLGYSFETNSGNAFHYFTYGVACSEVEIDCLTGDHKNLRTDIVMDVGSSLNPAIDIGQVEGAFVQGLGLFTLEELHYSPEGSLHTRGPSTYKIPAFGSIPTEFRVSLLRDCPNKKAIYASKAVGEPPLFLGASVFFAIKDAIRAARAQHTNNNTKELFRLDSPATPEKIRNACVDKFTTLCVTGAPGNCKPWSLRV

Row | SMILES | IC50 (xanthine oxidase) | melting point | inhibition in vivo at 100 mg/kg [1] | inhibition in vivo at 100 mg/kg [2]
1 | CCC(C)(C)COc1ccc(-c2ncccc2C(=O)O)cc1C#N [Example 72, 2-[3-Cyano-4-(2,2-dimethylbutoxy)phenyl]nicotinic acid] | 28 nM | 166 to 167 °C | 48.5% | 34.2%
2 | CC(C)(C)CCOc1ccc(-c2ncccc2C(=O)O)cc1C#N [Example 84, 2-[3-Cyano-4-(3,3-dimethylbutoxy)phenyl]nicotinic acid] | 18 nM | 206 to 207 °C | 69.2% | 41.4%
3 | CC(C)(C)COc1ccc(-c2ncccc2C(=O)O)cc1C#N [Example 83, 2-[3-Cyano-4-(2,2-dimethylpropoxy)phenyl]nicotinic acid] | 42 nM | 231 to 232 °C | 56.6% | 112%
4 | CC1(COc2ccc(-c3ncccc3C(=O)O)cc2C#N)CCCCC1 [Example 77, 2-[3-Cyano-4-(1-methylcyclohexylmethoxy)phenyl]nicotinic acid] | 24 nM | 100 to 101 °C | 27.8% | 39.6%
5 | N#Cc1cc(-c2ncccc2C(=O)O)ccc1OCCCCc1ccccc1 [Example 62, 2-[3-Cyano-4-(4-phenylbutoxy)phenyl]nicotinic acid] | 27 nM | 163 to 164 °C | 43.6% | 71.1%

Second part, led by results:

Row | IC50 (xanthine oxidase) | melting point | SMILES | inhibition in vivo at 100 mg/kg [1] | inhibition in vivo at 100 mg/kg [2]
6 | 36 nM | 187 to 188 °C | N#Cc1cc(-c2ncccc2C(=O)O)ccc1OCCc1ccccc1C(F)(F)F [Example 56] | 38.7% | 72.1%
7 | 24 nM | 227 to 228 °C | N#Cc1cc(-c2ncccc2C(=O)O)ccc1OCC1CCCC1 [Example 75, 2-(3-Cyano-4-cyclopentylmethoxyphenyl)nicotinic acid] | 49.5% | 25.7%
8 | 24 nM | 220 to 221 °C | N#Cc1cc(-c2ncccc2C(=O)O)ccc1OCC1CCCCC1 [Example 47, 2-(3-Cyano-4-cyclohexylmethoxyphenyl)nicotinic acid] | 52.6% | 46.3%
9 | – | 221 to 222 °C | CC(C)(COc1ccc(-c2ncccc2C(=O)O)cc1C#N)c1ccccc1 [Example 78, 2-[3-Cyano-4-(2-methyl-2-phenylpropoxy)phenyl]nicotinic acid] | 19.4% | 21.6%
10 | 42 nM | 183 to 184 °C | N#Cc1cc(-c2ncccc2C(=O)O)ccc1OCCCc1ccc(C(F)(F)F)cc1 [Example 59, 2-{3-Cyano-4-[3-(4-trifluoromethylphenyl)propoxy]phenyl}nicotinate] | 29.3% | 53.2%
11 | 53 nM | – | Cc1ccccc1CCOc1ccc(-c2ncccc2C(=O)O)cc1C#N [Example 102, 2-[3-Cyano-4-(2-methylphenethyloxy)-phenyl]nicotinic acid] | 25.2% | 28.4%
